pEC50, pKd: −log10 of the molar value. Like-named read-outs stand apart in the source and are kept apart here.
How the values were obtained:
[1] = tested on: G-protein heterotrimer (Gα2-CFP:Gβ-YFP) linked to cAMP chemoattractant receptors; experiment: FRET loss in living α2-CFP:β-YFP cells (fluorimeter); assay type: cell-based, D. discoideum; conditions: for pEC50: read-out: EC50 for decrease of the FRET signal
Description: (§1) FIGS. 2A to 2E. Fluorescence spectra of cell lines. (FIG. 2A) Developed cells were excited in a Spex Fluoromax-2 fluorimeter at 440 nm and emission was collected between 460 nm and 600 nm and processed as described (14). Gα2-CFP/g α2^− cells (“α2-CFP”), α2-CFP: β-YFP cells (“α2-CFP: -YFP”), and mixture of equal number of Ga-2-CFP/gα2^− and G β-YFP/g βcells (“mixed cells”). […] Cells were scanned at selected time points following addition of the stimulus. […] Mean intensities were calculated in IPLab Spectrum by manually circumscribing the membrane of multiple cells. […] Arrows indicate the frame at which the stimulus was added. (FIG. 2E) Difference images of consecutive frames of one captured at 3 second intervals were calculated in IPLab Spectrum. […] Calibration bar is 10 μm.
FIGS. 3A to 3B. […] Data was processed as described (34). […] Data from two independent experiments were averaged for each curve.
We excited living, differentiated cells at 440 nm and recorded the emission spectrum between 460 and 600 nm.
• 1. A. G. Gilman, Annu Rev Biochem 56, 615-49 (1987). • 2. H. E. Hamm, J Biol Chem 273, 669-72 (1998). • 3. C. A. Parent, B. J. Blacklock, W. M. Froehlich, D. B. Murphy, P. N. Devreotes, Cell 95, 81-91 (1998). • 4. Z. Xiao, N. Zhang, D. B. Murphy, P. N. Devreotes, J Cell Biol 139, 365-74 (1997). • 5. G. Servant et al., Science 287, 1037-40 (2000). • 6. T. Jin, N. Zhang, Y. Long, C. A. Parent, P. N. Devreotes, Science 287, 1034-6 (2000). • 7. R. Heim, R. Y. Tsien, Curr Biol 6, 178-82 (1996). • 8. The coding region of the β-YFP fusion protein was cloned into the CV5 vector. CV5 was derived from p88 by addition of an actin 15/expression cassette from pMC34 (3). • 9. D. G. Lambright et al., Nature 379, 311-9 (1996). • 10. M. A. Wall et al., Cell 83, 1047-58 (1995) • 11. A. Kumagai et al., Cell 57, 265-75 (1989). • 12. The gene encoding CFP was inserted into a Spe1 site after residue 90, in the loop between the αA and the αB helices, of the Gα2 cDNA. The SpeI site also added a threonine and serine residue at the N and C terminal loundaries of the insertion. This fusion was cloned into the CV5 vector. The gα2^− cells were transformed, and individual G418 resistant clones were selected. […] Equal amounts of plasmids carrying the Gα2-CFP and Gβ-YFP fusions were mixed, transformed into gα2 cells, and individual G418 resistant clones were selected.

cAR1 = target: T1, cAR1 (Dictyostelium discoideum, UniProt P13773); conditions: cited from earlier work; for pKd: literature ref 16, read-out: reported binding affinity (average KD)
T1 sequence (P13773 1-392): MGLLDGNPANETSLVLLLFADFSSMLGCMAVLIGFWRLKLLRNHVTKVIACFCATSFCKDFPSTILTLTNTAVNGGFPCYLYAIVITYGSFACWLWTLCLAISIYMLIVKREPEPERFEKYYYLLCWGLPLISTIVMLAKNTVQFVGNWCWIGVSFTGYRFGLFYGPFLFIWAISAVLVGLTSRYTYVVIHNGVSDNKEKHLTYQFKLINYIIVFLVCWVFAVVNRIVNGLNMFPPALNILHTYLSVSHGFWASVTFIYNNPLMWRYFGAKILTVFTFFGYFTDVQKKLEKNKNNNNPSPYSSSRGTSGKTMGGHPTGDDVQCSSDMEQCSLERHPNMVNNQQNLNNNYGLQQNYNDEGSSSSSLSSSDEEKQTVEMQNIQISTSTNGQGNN

[2] = tested on: PH-domain recruitment to membranes; experiment: PH domain (PHCRAC-GFP) binding to membranes in cell lysates; assay type: biochemical, D. discoideum
Description: FIGS. 4A to 4C. Continuous activation of the G-protein cycle. […] (FIG. 4B) Receptor regulation of PH domain translocation. […] After 2 minutes membranes were collected and binding of the PHCRAC-GFP was assessed by immunoblot analysis using antibodies to GFP (22). (FIG. 4C) Assessment of cAR1 phosphorylation.

[3] = target: T2, G-protein heterotrimer (Gα2-CFP:Gβ-YFP) (Dictyostelium discoideum, UniProt P16051, INS90[…]); experiment: FRET signal in membranes prepared from α-CFP:β-YFP cells; assay type: biochemical, D. discoideum
T2 construct: expressed in transfected cells; host or cells: D. discoideum gα2-null cells (α-CFP:β-YFP cells), CV5 vector, G418-selected clones; living cells in A1 and A3, membranes prepared from them in A4

[4] = tested on: G-protein heterotrimer (Gα2-CFP:Gβ-YFP) in α-CFP:β-YFP cells; conditions: saturating dose, within 6 seconds
Description: as §1

[5] = α2-CFP:β-YFP cells, caffeine treated, 10 mM dithiothreitol

Nc1ncnc2c1ncn2C1CC2OP(=O)(O)OCC2O1 (stereo not shown) [2′-dcAMP]
pEC50 [1, 5]: ~7.70
pKd (cAR1): ~6.00

Nc1ncnc2c1ncn2[C@@H]1O[C@H](COP(=O)(O)O)[C@@H](O)[C@H]1O [5′-AMP]
effect on the FRET signal ([1]; 1 mM): no effect on the FRET signal
binding to cAR1 (cAR1): does not bind to cAR1

Nc1ncnc2c1nc(Br)n2[C@@H]1O[C@@H]2COP(=O)(O)O[C@H]2[C@H]1O [8-Br-cAMP]
pEC50 [1, 5]: ~5.70
pKd (cAR1): ~4.49

Nc1nc2c(ncn2[C@@H]2O[C@H](COP(=O)(O)OP(=O)(O)OP(O)(O)=S)[C@@H](O)[C@H]2O)c(=O)[nH]1 [GTPγS]
binding of PH-domains to membranes ([2]; lysates from adapted cells (cAMP 15 minutes)): this response was lost
binding of PH-domains to membranes ([2]; lysates from naive cells): stimulated the binding of PH-domains to membranes
FRET signal of membranes ([3]; GTPγS alone (data not shown)): not with GTPγS alone
FRET signal of membranes ([3]; Mg++ plus GTPγS (data not shown)): disappeared

Nc1ncnc2c1ncn2C1OC2COP(=O)(O)OC2C1O (stereo not shown) [cAMP, cyclic adenosine 3′, 5′ phosphate]
FRET signal remaining, % of the initial value [1]: ~20%
change in FRET after adjusting to 10 μM [1]: further decrease in FRET
decrease of the FRET signal [1]: approximately 70%
duration of activation [1]: Activation did not subside
response as % of the maximum [1]: 90%
time for the FRET signal to return to its maximal level [1]: within two minutes
time to maximal response after stimulation [1]: ≤ 10 s
pEC50 [1]: ~8.00
decrease of the membrane FRET signal [4]: about 15%
